Reference: patent US11318115B2, “Oral pharmaceutical composition of Tecovirimat and preparation method thereof” (priority 2016, dated 2022)
Values after ≈ are worked out from the molar mass of the structure shown. Read-outs that look alike come from different tables or passages of the source.

Key:
physchem = format: physicochemical; conditions: aqueous with cosolvent or surfactant or cyclodextrin, thermodynamic from solid
Description: Excess amounts of Tecovirimat (bulk drug powder) was added to an aqueous solution comprising meglumine and cyclodextrin at different ratios relative to each other to form a suspension. The suspension was placed in a constant-temperature incubation shaker, and was shaken at a temperature of 25±1° C., 37±1° C. and 60±1° C. for 72 h. After reaching equilibrium, the suspension was filtered through a 0.45 μm hydrophilic filter membrane to obtain a filtrate. After the filtrate was properly diluted with an acetonitrile-water (50:50, v/v) solution, the absorbance was measured at 224 nm, and the solubility of Tecovirimat was calculated. The corresponding solubility curve was plotted by using the solubility of the drug as the ordinate, and using the concentration of the cyclodextrin and/or meglumine as the abscissa.

[1] = In vitro dissolution in water (ChP 2015, 0931 Method II, 100 rpm); format: physicochemical; conditions: within 60 min, 1000 ml water, FIG. 2
Description: Experimental method: 1000 ml water was used as dissolution medium, and according to the Dissolution Test (Pharmacopoeia of the People's Republic of China (2015 Edition), General Notices, 0931 Method II), the operation was carried out at a rotation rate of 100 rpm, and a solution (5 ml) was taken at 5, 10, 15, 30, 45, and 60 min, respectively, and was filtrated through a 0.45 μm microporous membrane, to obtain a test solution; and Tecovirimat (bulk drug powder, 5 mg) as a reference was accurately weighed, and placed in a 100 ml volumetric flask, and the medium for dissolution was added to a final volume of 100 ml, thereby obtaining a reference solution. By high performance liquid chromatography, the peak area of the test solution and the reference solution were measured at 224 nm. The dissolution amounts at different time points was calculated by an external standard method, and the cumulative dissolution curves were plotted.

[2] = cited from earlier work
[3] = cited from earlier work; remark: listed apart in the source

O=C(NN1C(=O)[C@@H]2[C@@H]3C=C[C@@H]([C@H]4C[C@@H]34)[C@@H]2C1=O)c1ccc(C(F)(F)F)cc1 [Tecovirimat, 4-trifluoromethyl-N-(3,3a, 4,4a, 5,5a, 6,6a-octahydro-1,3-dioxo-4,6-ethenocycloprop [f]isoindol-2 (1H)-yl)-benzamide]
solubility (physchem; 25 °C, cyclodextrin 20% (w/v) to 40% (w/v) alone, 25° C., FIG. 1(A), read-out: solubility of Tecovirimat in water): 5 to 15 mg/mL (≈ 13.3 to 39.9 mM) | solubility (physchem; 25 °C, meglumine 2% (w/v) to 10% (w/v) alone, 25° C., FIG. 1(B), read-out: solubility of Tecovirimat in water): 2 to 7 mg/mL (≈ 5.31 to 18.6 mM) | solubility (physchem; 25 °C, meglumine 5% (w/v) plus cyclodextrin 20% (w/v) to 40% (w/v), 25° C., FIG. 1(C), read-out: solubility of Tecovirimat in water): 20 to 80 mg/mL | solubility (physchem; 37 °C, cyclodextrin 20% (w/v) to 40% (w/v) alone, 37° C., FIG. 1(A), read-out: solubility of Tecovirimat in water): 5 to 18 mg/mL (≈ 13.3 to 47.8 mM) | solubility (physchem; 37 °C, meglumine 2% (w/v) to 10% (w/v) alone, 37° C., FIG. 1(B), read-out: solubility of Tecovirimat in water): 2 to 9 mg/mL (≈ 5.31 to 23.9 mM) | solubility (physchem; 37 °C, meglumine 5% (w/v) plus cyclodextrin 20% (w/v) to 40% (w/v), 37° C., FIG. 1(C), read-out: solubility of Tecovirimat in water): 30 to 100 mg/mL | solubility (physchem; 60 °C, cyclodextrin 20% (w/v) to 40% (w/v) alone, 60° C., FIG. 1(A), read-out: solubility of Tecovirimat in water): 5 to 20 mg/mL (≈ 13.3 to 53.1 mM) | solubility (physchem; 60 °C, meglumine 2% (w/v) to 10% (w/v) alone, 60° C., FIG. 1(B), read-out: solubility of Tecovirimat in water): 2 to 10 mg/mL (≈ 5.31 to 26.6 mM) | solubility (physchem; 60 °C, meglumine 5% (w/v) plus cyclodextrin 20% (w/v) to 40% (w/v), 60° C., FIG. 1(C), read-out: solubility of Tecovirimat in water): 50 to 150 mg/mL | solubility (physchem; ternary solubilizing composition: Tecovirimat, cyclodextrin, additive (e.g. meglumine), read-out: maximal solubility): ≤ 152 mg/mL | dissolution [1]: < 5% | water solubility [2]: less than 0.003 mg/ml | solubility ([3]; 20%-40% (w/v) hydroxypropyl-β-cyclodextrin (HP-β-CD), 37° C.): 1.5 to 11 mg/mL | maximal solubility ([3]; 40% (w/v) HP-β-CD, 70° C.): 21.23 mg/mL | effect of cosolvent (PEG400) or nonionic surfactant (Tween 80) on solubility in HP-β-CD ([3]; HP-β-CD plus PEG400 or Tween 80): cannot further improve the solubility
